Assay results taken from US20100292200A1, “Methods for Modulating Apoptosis in Platelets” (The Walter and Eliza Hall Institute of Medical Research, priority 2006, published 2010).

What was measured:
[1] = system: primary MEFs from wild type, Bcl-x^Plt20/Plt20 or Bcl-x^Plt16/Plt16 mice; test: Viability of primary MEFs (PI exclusion) after cell death induction; type: cell-based, mouse
Text: FIG. 3 provides a representation of data showing that the Bcl-x^Plt20 and Bcl-x^Plt16 mutations destabilize the Bcl-xL protein (A) Location of the Plt20 and Plt16 mutations on Bcl-xL. The two mutations (in blue) are mapped on the 3-dimensional structure of mouse Bcl-xL (light gray) in complex with a Bim BH3 peptide (red) (1PQ1) (Liu et al. Immunity, 19:341-352, 2003). Y15 (Plt20) is partially solvent exposed, while I182 (Plt16) is completely buried, neither contributing to the BH3 binding groove of Bcl-xL. The structural depiction was prepared using PyMOL (DeLano, W. L. 2002 The PyMOL Molecular Graphics System; http://www.pymol.org). (B) The mutant proteins encoded by the Plt20 and Plt16 alleles of Bcl-x can still bind Bax and Bak. […] Data shown is representative of at least 2 cell lines of each genotype analyzed. […] The viability (determined by PI exclusion) of representative primary MEFs derived from wild type, Bcl-x^Plt20/Plt20 or Bcl-x^Plt16/Plt16 mice after exposure to 50 μg/mL cycloheximide for 0-30 h. […]
FIG. 8 is a graphical representation of data showing the sensitivity of cell lines derived from Bcl-x mutant mice to apoptosis. […] Viability was determined by PI uptake; data represent means±SD of representative cell lines. \-<1% viability. […]

[2] = system: mouse platelets; test: Ex vivo platelet assays, mouse platelets in culture (platelet counts, caspase immunoblotting); type: cell-based; conditions: qVD.OPh 50 μM with ABT-737 1 μM
Protocol: (A) Expression of Bcl-2 family proteins in platelets. […] (C) ABT-737 triggers caspase activation in platelets. […] (F) Absence of Bak protects platelets against ABT-737.
Cell death was induced with ABT-737 (up to 5 μM, Abbott Laboratories (Oltersdorf et al., 2005 (supra)), etoposide (up to 100 μM, Pharmacia) or staurosporine (10 μM, Sigma); 50 μM qVD.OPh (Enzyme Systems) was also added in some experiments. Cell viability was determined by flow cytometry for cells that exclude propidium iodide or manual counting using a hemacytometer.
Other antibodies for immunoblotting were mouse monoclonal anti-Bcl-xL (2H12; BD), anti-Bcl-2 (clone 7; BD), anti-human Bcl-2 (Bcl-2-100), anti-actin (AC40; Sigma), anti-Bax (2D2 and 5B7; Sigma), anti-Mcl-1 (clone 22: BD); rat monoclonal anti-Mcl-1 (14C11; D Huang, unpublished), rabbit polyclonal anti-Bak (B5897: Sigma), anti-Mcl-1 (Rockland), anti-caspase-3 (585; gift of Y. Lazebnik), anti-cleaved p17 fragment of caspase-3 (AB3623; Chemicon), anti-gelsolin (gift of D Kwiatkowski) (Kothakota et al., Science, 278:294-298, 1997); hamster monoclonal anti-mouse Bcl-2 (3F11; BD). Secondary antibodies included HRP-conjugated anti-rat or anti-hamster IgG (SouthernBiotech), anti-mouse or anti-rabbit IgG (Chemicon), and anti-mouse IgG Fcγ chain specific antibody (Jackson ImmunoResearch). The proteins were detected using Enhanced ChemiLuminescence (ECL; GE Healthcare).
Platelets were counted manually in triplicate using a hemacytometer.

[3] = system: Mcl-1 null MEF cells; test: Assay of Mcl-1 null MEF cells (rescue from ABT-737-induced killing, CellTitre-Blue viability); type: cell-based, mouse; conditions: positive control, 25 μM final; ABT-737 20 nM final
Protocol: In summary, cells are split on day one in order to have them at a confluency of 60-80% on day two. On day two, the cells are seeded out into assay plates at a density that will ensure they are not confluent by day four of the assay. The assay plates are incubated at room temperature for 20-60 minutes before being transferred to 37° C. so that edge effects are minimized. For the same reason, assay plates are never stacked on top of each other in the incubator. On day three the cells are treated first with either Q-VD or with WEHI library compound. The cells are incubated for a 2 hour period in the presence of the library compounds and are then treated with ABT-737. […] After four hours the level of resorufin is measured.
The protocol for day one was repeated up to the point where the cells were pelleted and the supernatant aspirated off. […] The cells were vortexed and then counted using a haemocytometer. The dilution necessary to achieve a density of 2×10^4 cells ml^−1 (1000 cells per well per 50 μl media) in the required volume was calculated and the dilution performed in 1% FCS FMA. […]
CellTitre-Blue™ was warmed to 37° C. and 10 μl was then added to each well of the assay plates using the Multidrop. The plates were returned to 37° C. for 4 hours before being loaded into the EnVision plate reader. […]

CN[C@@H]1C[C@H]2O[C@@](C)([C@@H]1OC)n1c3ccccc3c3c4c(c5c6ccccc6n2c5c31)C(=O)NC4 [staurosporine]
sensitivity of wild-type, Bcl-x^Plt20/Plt20 or Bcl-x^Plt16/Plt16 MEFs to staurosporine ([1]; staurosporine 10 μM, PI uptake): equally sensitive

C[C@@H]1C[C@@H]([C@H](O)CC2CC(=O)NC(=O)C2)C(=O)[C@@H](C)C1 [cycloheximide]
viability of Bcl-x^Plt20 or Bcl-x^Plt16 MEFs after protein synthesis inhibition ([1]; 50 μg/mL cycloheximide for 0-30 h, PI exclusion): susceptible

CC(C)[C@H](NC(=O)c1ccc2ccccc2n1)C(=O)N[C@@H](CC(=O)O)C(=O)COc1c(F)cccc1F [qVD.OPh]
effect of qVD.OPh on ABT-737-induced caspase-3 activation and gelsolin cleavage [2]: partially blocked | effect of qVD.OPh on the cytotoxic effect of ABT-737 on mouse platelets in culture ([2]; counted after 1 h): partially ameliorated | rescue of Mcl-1^(-/-) cells from ABT-737-induced apoptosis [3]: can be rescued
